Experimental data reported in patent publication US20130012709A1, “NOVEL INHIBITORS OF STEAROYL-CoA-DESATURASE-1 AND THEIR USES” (CENTRE NATIONAL DE LA RECHERCHE SCIENTIFIQUE, priority 2009, published 2013).
Like-named read-outs stand apart in the source and are kept apart here.

Legend:
C4-2 cells [1] = test: MTT assay (cell viability); conditions: 48 h
Method: (§2) After 48 h, medium was removed and 250 μl of a 5 mg/ml MTT (Sigma, St Louis, Mo., USA) solution in PBS was added to each well. After 4 h incubation at 37° C., the MTT solution was removed, 200 μl of DMSO (Sigma) was added and cells were incubated for 5 min. Two hundred microliters of each samples was distributed in 96-well plates for an optical density reading at 540 nm.

C4-2 cells [2] = test: Flow cytometry analysis of cell cycle; assay type: cell-based, human; conditions: 25 μM, 48 h; untreated cells 22
Method: (§1) Cells were then rinsed in PBS, pelleted at 400 g for 5 min and maintained on ice for 20 min before resuspension in a […] propidium iodide (Sigma) solution. Cells were kept overnight at 4° C. and the percentages of cells in G1, S and G2-M phases of the cell cycle were measured with a Coulter Epics XL™ flow cytometer (Becton Dickinson) using 488-nm laser excitation. For apoptosis experiment, MEFs were treated with the tested compound at 25 μM for 24 h, then rinced in PBS, pelleted at 400 g for 5 min and stained with annexinV-FITC (Roche Diagnostics, Meylan, France) for 15 min at 4° C. The percentage of annexin positive cells was immediately analysed using 488-nm laser excitation.

LNCaP cells [3] = test: Flow cytometry analysis of cell cycle; assay type: cell-based, human; conditions: 25 μM, 48 h; untreated cells 20
Method: as §1

C4-2 cells [4] = test: Proliferation by BrDU incorporation; conditions: 25 μM, 48 h of treatment
Method: (§3) LNCaP and C4-2 cells grown on coverslips were incubated for 4 hours with BrdU (100 μM final) at 24 hours and 48 hours following SCD-1 knock-down. Cells were then fixed and permeabilized with cold methanol for 10 min at −20° C. After 3 washes with PBS, DNA was denaturated with 4NHCL for 10 min at RT, and cells were incubated with blocking buffer (PBS-1% BSA). BrDU was then detected with anti-BrDU monoclonal antibody 1:50 (Dako, Carpinteria, Calif.) for 1 hour at 37° C. After 3 washes with PBS, cells were incubated with an FITC-conjugated anti-mouse secondary antibody 1:150 (Jackson Immunoresearch) for 30 min at 37° C., and slides were mounted in mowiol.

C4-2 cells [5] = tested on: C4-2 cells
Method: as §2

LNCaP cells [6] = test: Proliferation by BrDU incorporation; assay type: cell-based, human; conditions: 25 μM, 48 h of treatment
Method: as §3

Question: For `COc1ccc(Br)c(C(=O)N2CCN(S(=O)(=O)c3ccccc3)CC2)c1` [Example 1, 1N-[(2-bromo-5-methoxybenzoyl)]-4N-[(phenyl)sulfonyl]piperazine], which “Viable C4-2 cells at 25 μM (% of control)” value (C4-2 cells [1]) is on record?
Answer: 45 % of control

Question: What about the “% C4-2 cells in phase S at 25 μM” value (C4-2 cells [2]) of the same molecule?
Answer: 20.1%

Question: What about the “% LNCaP cells in phase S at 25 μM” value (LNCaP cells [3]) of the same molecule?
Answer: 18%

Question: And the “% Inhibition of proliferation at 25 μM (BrDU) on C4-2” value (“% Inhibition … on C4-2” for short) (C4-2 cells [4])?
Answer: 22.7 ± 11.2%

Question: `COc1ccc(Br)c(C(=O)N2CCN(S(=O)(=O)c3ccc(C(F)(F)F)cc3)CC2)c1` [Example 3, 1N-[(2-bromo-5-methoxybenzoyl)]-4N-[(4-trifluoromethylphenyl)sulfonyl]piperazine] was tested. Which “% C4-2 cells in phase S at 25 μM” value (C4-2 cells [2]) did it give?
Answer: 2.8%

Question: And the “% LNCaP cells in phase S at 25 μM” value (LNCaP cells [3])?
Answer: 10%

Question: What about the “% Inhibition … on C4-2” value (C4-2 cells [4]) of the same molecule?
Answer: 65.8 ± 6.4%

Question: Which results are given for `COc1ccc(Br)c(C(=O)N2CCN(S(=O)(=O)c3ccc(C(C)=O)cc3)CC2)c1` [Example 4, 1N-[(2-bromo-5-methoxybenzoyl)]-4N-[(4-acetylphenyl)sulfonyl]piperazine]?
Answer: % C4-2 cells in phase S at 25 μM (C4-2 cells [2]): 19.7%; % LNCaP cells in phase S at 25 μM (LNCaP cells [3]): 18%; % Inhibition of proliferation at 25 μM (BrDU) on C4-2 (C4-2 cells [4]): 36 ± 5.4%

Question: Which “% C4-2 cells in phase S at 25 μM” value (C4-2 cells [2]) does the source give for `CCCc1ccc(S(=O)(=O)N2CCN(C(=O)c3cc(OC)ccc3Br)CC2)cc1` [Example 5, 1N-[(2-bromo-5-methoxybenzoyl)]-4N-[(4-propylphenyl)sulfonyl]piperazine] here?
Answer: 10.7%

Question: What about the “% LNCaP cells in phase S at 25 μM” value (LNCaP cells [3]) of the same molecule?
Answer: 3%

Question: And the “% Inhibition … on C4-2” value (C4-2 cells [4])?
Answer: 26.8 ± 20.2%

Question: What does the source list for `COc1ccc(Br)c(C(=O)N2CCN(S(=O)(=O)c3ccc([N+](=O)[O-])cc3)CC2)c1` [Example 6, 1N-[(2-bromo-5-methoxybenzoyl)]-4N-[(4-nitrophenyl)sulfonyl]piperazine]?
Answer: Viable C4-2 cells at 25 μM (% of control) (C4-2 cells [1]): 42 % of control; % C4-2 cells in phase S at 25 μM (C4-2 cells [2]): 19.8%; % LNCaP cells in phase S at 25 μM (LNCaP cells [3]): 15%; % Inhibition of proliferation at 25 μM (BrDU) on C4-2 (C4-2 cells [4]): 0%

Question: Which results are given for `COc1ccc(Br)c(C(=O)N2CCN(S(=O)(=O)c3cccc(C(F)(F)F)c3)CC2)c1` [Example 7, 1N-[(2-bromo-5-methoxybenzoyl)]-4N-[(3-trifluoromethylphenyl)sulfonyl]piperazine]?
Answer: Viable C4-2 cells at 25 μM (% of control) (C4-2 cells [5]): 44 % of control; % Inhibition of proliferation at 25 μM (BrDU) on LNCaP (LNCaP cells [6]): 16.7%; % Inhibition of proliferation at 25 μM (BrDU) on C4-2 (C4-2 cells [4]): 31.6 ± 7.61%

Question: For `COc1ccc(Br)c(C(=O)N2CCN(S(=O)(=O)c3ccccc3C(F)(F)F)CC2)c1` [Example 8, 1N-[(2-bromo-5-methoxybenzoyl)]-4N-[(2-trifluoromethylphenyl)sulfonyl]piperazine], which “Viable C4-2 cells at 25 μM (% of control)” value (C4-2 cells [5]) is on record?
Answer: 73 % of control

Question: And the “% Inhibition of proliferation at 25 μM (BrDU) on LNCaP” value (“% Inhibition … on LNCaP” for short) (LNCaP cells [6])?
Answer: 40.1%

Question: And the “% Inhibition … on C4-2” value (C4-2 cells [4])?
Answer: 84.4 ± 8.5%

Question: Which results are given for `COc1ccc(Br)c(C(=O)N2CCN(S(=O)(=O)c3ccc(-c4ccccc4)cc3)CC2)c1` [Example 9, 1N-[(2-bromo-5-methoxybenzoyl)]-4N-[(4-biphenyl)sulfonyl]piperazine]?
Answer: Viable C4-2 cells at 25 μM (% of control) (C4-2 cells [1]): 90 % of control; % Inhibition of proliferation at 25 μM (BrDU) on LNCaP (LNCaP cells [6]): 48.3%; % Inhibition of proliferation at 25 μM (BrDU) on C4-2 (C4-2 cells [4]): 60.5 ± 5.7%

Question: Which results are given for `COc1ccc(Br)c(C(=O)N2CCN(S(=O)(=O)c3ccc(C)cc3)CC2)c1` [Example 10, 1N-[(2-bromo-5-methoxybenzoyl)]-4N-[(4-methylphenyl)sulfonyl]piperazine]?
Answer: Viable C4-2 cells at 25 μM (% of control) (C4-2 cells [1]): 59 % of control; % Inhibition of proliferation at 25 μM (BrDU) on LNCaP (LNCaP cells [6]): 0%; % Inhibition of proliferation at 25 μM (BrDU) on C4-2 (C4-2 cells [4]): 0%

Question: For `COc1ccc(Br)c(C(=O)N2CCN(S(=O)(=O)c3ccc(OC(F)(F)F)cc3)CC2)c1` [Example 11], which “Viable C4-2 cells at 25 μM (% of control)” value (C4-2 cells [5]) is on record?
Answer: 74 % of control

Question: What about the “% Inhibition … on LNCaP” value (LNCaP cells [6]) of the same molecule?
Answer: 45.5%

Question: And the “% Inhibition … on C4-2” value (C4-2 cells [4])?
Answer: 63 ± 4.1%

Question: How did the “Viable C4-2 cells at 25 μM (% of control)” value (C4-2 cells [5]) turn out when `COc1ccc(Br)c(C(=O)N2CCN(S(=O)(=O)c3ccc(F)cc3F)CC2)c1` [Example 12, 1N-[(2-bromo-5-methoxybenzoyl)]-4N-[(2, 4 difluorophenyl)sulfonyl]piperazine] was run?
Answer: 70 % of control

Question: What about the “% Inhibition … on LNCaP” value (LNCaP cells [6]) of the same molecule?
Answer: 60.6%

Question: What about the “% Inhibition … on C4-2” value (C4-2 cells [4]) of the same molecule?
Answer: 55.2 ± 0.5%

Question: Which “Viable C4-2 cells at 25 μM (% of control)” value (C4-2 cells [5]) does the source give for `COc1ccc(Br)c(C(=O)N2CCN(S(=O)(=O)c3ccccc3F)CC2)c1` [Example 13, 1N-[(2-bromo-5-methoxybenzoyl)]-4N-[(2-fluorophenyl)sulfonyl]piperazine] here?
Answer: 56 % of control

Question: And the “% Inhibition … on LNCaP” value (LNCaP cells [6])?
Answer: 27.1%

Question: And the “% Inhibition … on C4-2” value (C4-2 cells [4])?
Answer: 55.6 ± 3.1%

Question: `COc1ccc(Br)c(C(=O)N2CCN(S(=O)(=O)c3c(F)cccc3F)CC2)c1` [Example 14, 1N-[(2-bromo-5-methoxybenzoyl)]-4N-[(2,6-difluorophenyl)sulfonyl]piperazine] was tested. Which “% Inhibition … on C4-2” value (C4-2 cells [4]) did it give?
Answer: 0%

Question: How did the “% Inhibition … on C4-2” value (C4-2 cells [4]) turn out when `COc1ccc(Br)c(C(=O)N2CCN(S(=O)(=O)c3ccc(C(C)C)cc3)CC2)c1` [Example 16, 1N-[(2-bromo-5-methoxybenzoyl)]-4N-[(4-isopropylphenyl)sulfonyl]piperazine] was run?
Answer: 75.4 ± 10.8%

Question: With `COc1ccc(Br)c(C(=O)N2CCN(S(=O)(=O)c3ccc(Br)cc3)CC2)c1` [Example 17, 1N-[(2-bromo-5-methoxybenzoyl)]-4N-[(4-bromophenyl)sulfonyl]piperazine] as the molecule, how does the “% Inhibition … on C4-2” value (C4-2 cells [4]) read?
Answer: 67.6 ± 8.2%

Question: For `COc1ccc(Br)c(C(=O)N2CCN(S(=O)(=O)c3ccc(Cl)cc3)CC2)c1` [Example 18, 1N-[(2-bromo-5-methoxybenzoyl)]-4N-[(4-chlorophenyl)sulfonyl]piperazine], which “Viable C4-2 cells at 25 μM (% of control)” value (C4-2 cells [1]) is on record?
Answer: 59 % of control

Question: And the “% Inhibition … on LNCaP” value (LNCaP cells [6])?
Answer: 49.7%

Question: And the “% Inhibition … on C4-2” value (C4-2 cells [4])?
Answer: 38.1 ± 7.1%

Question: `COc1ccc(S(=O)(=O)N2CCN(C(=O)c3cc(OC)ccc3Br)CC2)cc1` [Example 19, 1N-[(2-bromo-5-methoxybenzoyl)]-4N-[(4-methoxyphenyl)sulfonyl]piperazine] was tested. Which “% Inhibition … on C4-2” value (C4-2 cells [4]) did it give?
Answer: 22.4 ± 7.7%

Question: Which results are given for `COc1ccc(Br)c(C(=O)N2CCN(S(=O)(=O)Cc3ccccc3)CC2)c1` [Example 20, 1N-[(2-bromo-5-methoxybenzoyl)]-4N-[(phenylmethane)sulfonyl]piperazine]?
Answer: Viable C4-2 cells at 25 μM (% of control) (C4-2 cells [1]): 37 % of control; % Inhibition of proliferation at 25 μM (BrDU) on LNCaP (LNCaP cells [6]): 16.8%; % Inhibition of proliferation at 25 μM (BrDU) on C4-2 (C4-2 cells [4]): 46.3 ± 11.7%

Question: `COc1ccc(Br)c(C(=O)N2CCN(S(=O)(=O)c3cccs3)CC2)c1` [Example 21, 1N-[(2-bromo-5-methoxybenzoyl)]-4N-[(2-thiophene)sulfonyl]piperazine] was tested. Which “% Inhibition … on C4-2” value (C4-2 cells [4]) did it give?
Answer: 58.3 ± 19.9%

Question: For `COc1ccc(Br)c(C(=O)N2CCN(S(=O)(=O)c3ccsc3)CC2)c1` [Example 22, 1N-[(2-bromo-5-methoxybenzoyl)]-4N-[(3-thiophene)sulfonyl]piperazine], which “% Inhibition … on C4-2” value (C4-2 cells [4]) is on record?
Answer: 28 ± 2.6%

Question: How did the “% Inhibition … on C4-2” value (C4-2 cells [4]) turn out when `COc1ccc(Br)c(C(=O)N2CCN(S(=O)(=O)c3ccco3)CC2)c1` [Example 23, 1N-[(2-bromo-5-methoxybenzoyl)]-4N-[(2-furan)sulfonyl]piperazine] was run?
Answer: 48 ± 14%

Question: `COc1ccc(Br)c(C(=O)N2CCN(S(=O)(=O)c3ccoc3)CC2)c1` [Example 24, 1N-[(2-bromo-5-methoxybenzoyl)]-4N-[(3-furan)sulfonyl]piperazine] was tested. Which “% Inhibition … on C4-2” value (C4-2 cells [4]) did it give?
Answer: 28.4 ± 9.8%

Question: Which “% Inhibition … on C4-2” value (C4-2 cells [4]) does the source give for `COc1ccc(Br)c(C(=O)N2CCN(S(=O)(=O)c3cn(C)cn3)CC2)c1` [Example 25, 1N-[(2-bromo-5-methoxybenzoyl)]-4N-[(1-methyl-1H-imidazole)sulfonyl]piperazine] here?
Answer: 0%

Question: With `COc1ccc(C(=O)N2CCN(S(=O)(=O)c3ccc(F)cc3F)CC2)cc1Br` [Example 26, 1N-[(3-bromo-4-methoxybenzoyl)]-4-N-[(2,4-difluorophenyl)sulfonyl]piperazine] as the molecule, how does the “% Inhibition … on C4-2” value (C4-2 cells [4]) read?
Answer: 68.2 ± 18.2%

Question: How did the “% Inhibition … on C4-2” value (C4-2 cells [4]) turn out when `COc1ccc(Br)cc1C(=O)N1CCN(S(=O)(=O)c2ccc(F)cc2F)CC1` [Example 27, 1N-[(2-methoxy-5-bromobenzoyl)]-4-N-[(2,4-difluorophenyl)sulfonyl]piperazine] was run?
Answer: 26.2 ± 6.2%

Question: How did the “% Inhibition … on C4-2” value (C4-2 cells [4]) turn out when `COc1c(Br)cccc1C(=O)N1CCN(S(=O)(=O)c2ccc(F)cc2F)CC1` [Example 28, 1N-[(2-methoxy-3-bromobenzoyl)]-4-N-[(2,4-difluorophenyl)sulfonyl]piperazine] was run?
Answer: 55.4 ± 14%

Question: `COc1cccc(C(=O)N2CCN(S(=O)(=O)c3ccc(F)cc3F)CC2)c1` [Example 31, 1N-[(3-methoxybenzoyl)]-4-N-[(2,4-difluorophenyl)sulfonyl]piperazine] was tested. Which “% Inhibition … on C4-2” value (C4-2 cells [4]) did it give?
Answer: 25.3 ± 6.1%

Question: For `COc1ccccc1C(=O)N1CCN(S(=O)(=O)c2ccc(F)cc2F)CC1` [Example 32, 1N-[(2-methoxybenzoyl)]-4-N-[(2,4-difluorophenyl)sulfonyl]piperazine], which “% Inhibition … on C4-2” value (C4-2 cells [4]) is on record?
Answer: 0%

Question: `O=C(c1ccsc1)N1CCN(S(=O)(=O)c2ccc(F)cc2F)CC1` [Example 36, 1N-[3-thiophenecarbonyl]-4-N-[(2,4-difluorophenyl)sulfonyl]piperazine] was tested. Which “% Inhibition … on C4-2” value (C4-2 cells [4]) did it give?
Answer: 40 ± 7.6%

Question: With `O=C(c1cscn1)N1CCN(S(=O)(=O)c2ccc(F)cc2F)CC1` [Example 37, 1N-[4-thiazolecarbonyl]-4-N-[(2,4-difluorophenyl)sulfonyl]piperazine] as the molecule, how does the “% Inhibition … on C4-2” value (C4-2 cells [4]) read?
Answer: 37 ± 7.8%
